Assay results published in publication PMC8151276, “An Integrated Approach toward NanoBRET Tracers for Analysis of GPCR Ligand Engagement” (Molecules, 2021).

Tests used:
Format in all cases: binding
[1] = target: T1, CCR2 (Homo sapiens, UniProt P41597); experiment: NanoBRET screen HiBiT-CCR2 in HEK293
T1 construct: purchased Promega (in-house HiBiT-GPCR construct library, NanoBRET)
Procedure: (§1) Each tracer candidate was screened across the entire library of HiBiT-GPCR constructs using NanoBRET as the detection modality. As depicted in Figure 4A, the specificity of interactions was evaluated through decrease in BRET due to competitive displacement of a bound tracer by excess parental compound. Each tracer was analyzed for binding to each HiBiT-GPCR fusion in the absence and in the presence of competing parental compound. Briefly, HEK293 cells were transfected with HiBiT-GPCR constructs diluted into promoterless DNA to reduce expression and maximize translocation to the cell surface. Each tracer candidate was then screened at concentrations of 1 μM and 0.1 μM across cells expressing these fusions. Cells were treated for 1.5 h with tracer either alone or in the presence of 20 μM competing parental compound (i.e., control). BRET was measured upon addition of purified LgBiT and subsequent complementation with HiBiT genetically fused to a GPCR. The specificity of interactions was assessed through a decrease in BRET signal due to competitive displacement of the bound tracer. To further gauge the robustness of these interactions, the fold response over the control (i.e., BRETtracer/BRETcontrol) was calculated. We chose a 1.5-fold response, which translates to ≥7-fold signal over noise as the minimal threshold required to score an interaction as positive. […]. Below we highlight the screening results obtained for our exemplary fluorescent tracers based on Clozapine, Amitriptyline and AZD1283.
(§2) HiBiT-GPCR DNA constructs were diluted in 10 mM Tris pH 8 to a final concentration of 0.01 μg/μL, arrayed in 96-well plates and stored at −20 °C. For transfection, HEK293 cells were suspended in Opti-MEM (without phenol red) supplemented with 2% fetal bovine serum (Seradigm) and 100 units/mL penicillin–streptomycin (Gibco) at a final concentration of 220,000 cells/mL and dispensed into white 96-well plates at 90 μL/well. Subsequent transfections and screens were carried using an Agilent Bravo Automated Liquid Handling Platform. First, the 96-well HiBiT DNA arrays were diluted 25-fold in Opti-MEM (without serum or phenol red) to a final concentration of 0.0004 μg/μL and 20 μL of the diluted DNAs were transferred into new 96-well plates. Next, promoterless carrier DNA (1 μg/μL) was diluted 25-fold (0.04 μg/μL) and then dispensed into the diluted arrays at 20 μL/well. Following brief mixing, Viafect transfection reagent (Promega) diluted 16-fold into Opti-MEM was dispensed into the plates at 40 μL/well. After mixing by pipetting, plates were incubated for 10 min on the pipetting station deck. The DNA-transfection reagent complexes were then added to plates containing cells. To facilitate the screen, 10 μL of DNA-transfection reagent complexes were added in duplicates to the top 4 and bottom 4 rows, resulting in two identical 48-well arrays per plate. Plates with transfected cells were incubated for 18–20 h at 37 °C/5% CO2. A screen of each tracer across the entire library using two different concentrations requires duplicate plates of transfected cells. Depending on the number of tracers being screened, transfections can be scaled up using the same ratios. The next day, for each tracer, four 20× screening solutions in tracer dilution buffer (Promega) were prepared: two duplicates at final concentration of 20 μM and two duplicates at a final concentration of 2 μM. A competing unmodified compound was added to one of each duplicate at a final concentration of 400 μM. The four resulting solutions were diluted 4-fold in Opti-MEM without serum or phenol red to generate 5× solutions (5 µM and 0.5 µM tracer +/− 100 μM competing compound). To screen the library, a BioTek MultiFlo FX liquid dispenser was used to dispense 22.5 µL of tracer solution to the top 4 rows and 22.5 µL tracer + competing compound solution to the 4 bottom rows. Plates were briefly mixed on an orbital shaker and incubated for 1.5 h at room temperature. […]

[2] = target: T2, CCKBR (Homo sapiens, UniProt P32239); experiment: NanoBRET screen HiBiT-CCKBR in HEK293
T2 construct: purchased Promega (in-house HiBiT-GPCR construct library, NanoBRET)
T2 sequence (P32239 1-447): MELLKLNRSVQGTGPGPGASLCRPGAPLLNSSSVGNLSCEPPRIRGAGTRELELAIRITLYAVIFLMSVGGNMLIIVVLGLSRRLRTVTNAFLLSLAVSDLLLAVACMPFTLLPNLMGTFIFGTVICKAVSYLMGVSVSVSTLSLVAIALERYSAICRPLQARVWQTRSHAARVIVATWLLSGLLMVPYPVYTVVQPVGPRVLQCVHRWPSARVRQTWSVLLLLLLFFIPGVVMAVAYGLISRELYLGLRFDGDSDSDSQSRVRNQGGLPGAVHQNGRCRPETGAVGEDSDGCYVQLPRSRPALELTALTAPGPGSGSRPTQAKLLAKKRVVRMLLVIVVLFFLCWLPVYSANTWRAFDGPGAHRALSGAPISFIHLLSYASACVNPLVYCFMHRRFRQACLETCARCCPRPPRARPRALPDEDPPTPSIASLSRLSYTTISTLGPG
Procedure: as §1, §2

[3] = target: T3, P2RY1 (Homo sapiens, UniProt P47900); experiment: NanoBRET screen HiBiT-P2RY1 in HEK293
T3 construct: purchased Promega (in-house HiBiT-GPCR construct library, NanoBRET)
Procedure: as §1, §2

[4] = target: T4, PTGDR2 (Homo sapiens, UniProt Q9Y5Y4); experiment: NanoBRET screen HiBiT-PTGDR2 in HEK293
T4 construct: purchased Promega (in-house HiBiT-GPCR construct library, NanoBRET)
T4 sequence (Q9Y5Y4 1-395): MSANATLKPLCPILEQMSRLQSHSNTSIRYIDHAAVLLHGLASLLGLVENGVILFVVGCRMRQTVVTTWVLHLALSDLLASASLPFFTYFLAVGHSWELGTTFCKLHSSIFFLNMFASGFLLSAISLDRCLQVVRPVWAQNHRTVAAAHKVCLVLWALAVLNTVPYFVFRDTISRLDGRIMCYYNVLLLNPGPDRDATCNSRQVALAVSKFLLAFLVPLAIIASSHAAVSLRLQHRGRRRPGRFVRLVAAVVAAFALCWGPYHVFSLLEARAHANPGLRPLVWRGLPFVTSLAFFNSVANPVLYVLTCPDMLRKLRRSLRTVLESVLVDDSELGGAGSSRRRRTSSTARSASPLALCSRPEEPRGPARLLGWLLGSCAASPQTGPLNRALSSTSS
Procedure: as §1, §2

[5] = target: T5, CYSLTR2 (Homo sapiens, UniProt Q9NS75); experiment: NanoBRET screen HiBiT-CYSLTR2 in HEK293
T5 construct: purchased Promega (in-house HiBiT-GPCR construct library, NanoBRET)
T5 sequence (Q9NS75 1-346): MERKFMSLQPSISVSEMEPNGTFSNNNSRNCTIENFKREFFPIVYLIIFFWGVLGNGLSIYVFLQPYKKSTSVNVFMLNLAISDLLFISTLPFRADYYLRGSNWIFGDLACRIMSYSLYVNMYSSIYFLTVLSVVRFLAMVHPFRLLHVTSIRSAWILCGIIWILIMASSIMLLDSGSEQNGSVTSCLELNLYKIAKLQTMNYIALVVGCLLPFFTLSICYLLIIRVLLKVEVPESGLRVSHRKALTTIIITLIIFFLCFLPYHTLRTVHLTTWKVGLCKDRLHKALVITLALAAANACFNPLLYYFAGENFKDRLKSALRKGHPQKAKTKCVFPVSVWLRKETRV
Procedure: as §1, §2

T3 sequence (P47900 whole entry): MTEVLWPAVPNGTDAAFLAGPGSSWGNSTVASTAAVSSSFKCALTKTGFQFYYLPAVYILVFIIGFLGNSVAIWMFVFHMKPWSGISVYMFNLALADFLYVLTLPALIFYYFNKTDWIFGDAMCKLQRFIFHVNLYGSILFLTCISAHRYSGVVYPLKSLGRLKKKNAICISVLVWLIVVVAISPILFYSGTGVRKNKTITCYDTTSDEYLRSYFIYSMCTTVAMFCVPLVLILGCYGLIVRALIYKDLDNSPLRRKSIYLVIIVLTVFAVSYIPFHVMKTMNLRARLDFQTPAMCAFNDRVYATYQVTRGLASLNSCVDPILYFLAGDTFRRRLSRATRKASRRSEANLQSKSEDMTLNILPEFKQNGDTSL
T1 sequence (P41597 whole entry): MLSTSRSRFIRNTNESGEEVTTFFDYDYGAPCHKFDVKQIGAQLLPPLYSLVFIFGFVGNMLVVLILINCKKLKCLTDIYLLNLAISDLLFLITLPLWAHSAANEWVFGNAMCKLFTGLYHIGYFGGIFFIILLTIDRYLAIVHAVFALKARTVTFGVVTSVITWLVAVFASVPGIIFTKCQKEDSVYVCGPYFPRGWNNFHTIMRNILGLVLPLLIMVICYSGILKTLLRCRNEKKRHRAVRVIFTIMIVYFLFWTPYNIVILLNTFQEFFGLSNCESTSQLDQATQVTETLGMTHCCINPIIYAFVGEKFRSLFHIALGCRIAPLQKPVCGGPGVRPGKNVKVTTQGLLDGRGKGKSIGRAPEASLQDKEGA

| Compound | NanoBRET Fold Response ([1]; CCR2, tracer 0.1μM) | NanoBRET Fold Response ([1]; CCR2, tracer 1μM) | NanoBRET Fold Response ([2]; CCKBR, tracer 0.1μM) | NanoBRET Fold Response ([2]; CCKBR, tracer 1μM) | NanoBRET Fold Response ([3]; P2RY1, tracer 0.1μM) | NanoBRET Fold Response ([3]; P2RY1, tracer 1μM) | NanoBRET Fold Response ([4]; PTGDR2, tracer 0.1μM) | NanoBRET Fold Response ([4]; PTGDR2, tracer 1μM) | NanoBRET Fold Response ([5]; CYSLTR2, tracer 0.1μM) | NanoBRET Fold Response ([5]; CYSLTR2, tracer 1μM) | also measured |
| --- | --- | --- | --- | --- | --- | --- | --- | --- | --- | --- | --- |
| O=C(CCc1ccc2n1[B-](F)(F)[N+]1=C(c3ccc[nH]3)C=CC1=C2)NCc1ccc(C(=O)NCCOCCC(=O)N[C@@H]2CC[C@@]3(O)[C@H]4Cc5ccc(O)c6c5[C@@]3(CCN4CC3CC3)[C@H]2O6)cc1 [Naltrexone-3-NB590] | 1.12 | 0.70 | 0.79 | 0.93 | 0.86 | 0.95 | 0.98 | 1.00 | 1.05 | 0.98 | – |
| CCCn1c(=O)c2[nH]c(-c3ccc(OCC(=O)NCCNC(=O)CCOCCNC(=O)c4ccc(CNC(=O)CCc5ccc6n5[B-](F)(F)[N+]5=C(c7ccc[nH]7)C=CC5=C6)cc4)cc3)nc2n(CCC)c1=O [XAC-3-NB590] | 1.08 | 1.61 | 1.02 | 0.85 | 1.05 | 0.96 | 1.00 | 1.06 | 1.08 | 1.01 | – |
| CC(C)N(CC[C@H](c1ccccc1)c1cc(CCNC(=O)c2ccc(CNC(=O)CCc3ccc4n3[B-](F)(F)[N+]3=C(c5ccc[nH]5)C=CC3=C4)cc2)ccc1O)C(C)C [Tolterodine-BZ-NB590] | 0.99 | 0.89 | 0.97 | 1.06 | 1.43 | 1.03 | 0.98 | 0.96 | 1.00 | 1.08 | – |
| COc1ccc2[nH]c(-c3ccc(CNC(=O)CCOCCOCCOCCOCCNC(=O)CCc4ccc5n4[B-](F)(F)[N+]4=C(c6ccc[nH]6)C=CC4=C5)cc3)c(CCNC(C)=O)c2n1 [AzomelatoninICO9-2-NB590] | – | – | – | – | – | – | – | – | – | – | NanoBRET Fold Response ([1]; 0.1μM tracer): 1.23; NanoBRET Fold Response ([1]; 1μM tracer): 1.22; NanoBRET Fold Response ([2]; 0.1μM tracer): 1.13; NanoBRET Fold Response ([2]; 1μM tracer): 1.16; NanoBRET Fold Response ([3]; 0.1μM tracer): 0.99; NanoBRET Fold Response ([3]; 1μM tracer): 0.99; NanoBRET Fold Response ([4]; 0.1μM tracer): 1.06; NanoBRET Fold Response ([4]; 1μM tracer): 1.12; NanoBRET Fold Response ([5]; 0.1μM tracer): 1.03; NanoBRET Fold Response ([5]; 1μM tracer): 1.06 |
| CN1CCN(C2=Nc3cc(Cl)ccc3N(CC(=O)NCCOCCOCCOCCOCCNC(=O)CCc3ccc4n3[B-](F)(F)[N+]3=C(c5ccc[nH]5)C=CC3=C4)c3ccccc32)CC1 [Clozapine-c-2-NB590] | – | – | – | – | – | – | – | – | – | – | NanoBRET Fold Response ([1]; CCR2, 0.1μM tracer): 0.94; NanoBRET Fold Response ([1]; CCR2, 1μM tracer): 0.75; NanoBRET Fold Response ([2]; CCKBR, 0.1μM tracer): 1.04; NanoBRET Fold Response ([2]; CCKBR, 1μM tracer): 1.01; NanoBRET Fold Response ([3]; P2RY1, 0.1μM tracer): 0.97; NanoBRET Fold Response ([3]; P2RY1, 1μM tracer): 1.03; NanoBRET Fold Response ([4]; PTGDR2, 0.1μM tracer): 0.96; NanoBRET Fold Response ([4]; PTGDR2, 1μM tracer): 1.02; NanoBRET Fold Response ([5]; CYSLTR2, 0.1μM tracer): 1.04; NanoBRET Fold Response ([5]; CYSLTR2, 1μM tracer): 1.07 |
